Test system: gastrointestinal motility
Experiment: Mouse Cecal Test (inhibition of gastrointestinal motility, charcoal in cecum)
Format: in vivo, mouse (male Charles River mice)
Conditions: IG (oral), 30 min before oral charcoal, cecum examined 3.5 h after charcoal, all-or-none, logistic method of Berkson, read-out: ED50 ± S.E. (median effective dose)
Description: The method used for this assay is a modification of the techniques previously described by Macht and Barb-Gose, J. Amer. Pharm. Ass., 20, 558 (1931), and Janssen and Jageneau, J. Pharm. Pharmacol., 9, 381 (1957). Details are as follows:
A group of six, male Charles River mice weighing 20-25 g. which have been previously fasted for 24 hours are pretreated with the test compounds administered orally as a solution in water or suspended in 0.5% methyl cellulose. A constant volume of 10 ml./kg. is employed. Thirty minutes following administration of the test compounds, the animals are given a single oral dose of charcoal which consists of 0.2 ml. per mouse of 10% charcoal suspended in 1.0% methyl cellulose. Three and a half hours after charcoal administration, the animals are sacrificed and the cecum examined for the absence or presence of charcoal on an all-or-none basis.
The median effective dose (ED50) is then calculated for each compound using the logistic method of Berkson (1953).

How did the ED50 turn out when `Cl.OC1(C(CC2CC3CCN2CC3)(c2ccccc2)c2ccccc2)CCCC1` (centres unmarked) [1-[2-(1-azabicyclo[2.2.2]octan-2-yl)-1,1-diphenylethyl] cyclopentanol hydrochloride] was run?
Its ED50 is 1.78 ± 0.83 mg/kg.

`CC(C)(O)C(CC1CC2CCN1CC2)(c1ccccc1)c1ccccc1` (stereo not drawn) [Alpha, alpha-dimethyl-beta, beta-diphenyl-1-azabicyclo [2.2.2]octane-2-propanol] was tested. Which ED50 did it give?
Its ED50 is 1.6 ± 0.28 mg/kg.

How did the ED50 turn out when `OC1(C(CC2CC3CCN2CC3)(c2ccccc2)c2ccccc2)CCCC1` (centres unmarked) [1-[2-(1-azabicyclo[2.2.2]octan-2-yl)-1,1-diphenylethyl] cyclopentanol] was run?
Its ED50 is 7.61 ± 2.23 mg/kg.

Which ED50 does the source give for `OCCC(CC1CC2CCN1CC2)(c1ccccc1)c1ccccc1` (centres unmarked) [Gamma, gamma-diphenyl-1-azabicyclo[2.2.2]octane-2-butanol] here?
Its ED50 is 6.39 ± 2.09 mg/kg.

With `Cl.OCCC(CC1CC2CCN1CC2)(c1ccccc1)c1ccccc1` (centres unmarked) [gamma, gamma-diphenyl-1-azabicyclo[2.2.2]octane-2-butanol hydrochloride] as the molecule, how does the ED50 read?
Its ED50 is 1.2 ± 0.25 mg/kg.

Reference: patent publication US4203989A, “Anti-diarrheal diaryl-(1-azabicyclo(2.2.2)octan-2-yl)-alkanols and related compounds” (G. D. Searle & Co., priority 1979, dated 1980)
